Test results from PubChem BioAssay (NCI).
Values joined by “and” are separate entries in the source; they are usually repeats but may differ in a detail not shown here. Identical values can stand only once.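 Dose response: 5 concentrations. Exposure: 48 h. Format: 96-well plates. Endpoint: linear interpolation; highest concentration if not reached. Here, GI50 denotes the concentration required for 50% inhibition of growth. TGI marks complete inhibition of growth.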

Tests used:
Experiment in all cases: NCI-60 cell line screen, 48 h
SK-MEL-28 melanoma = tested on: SK-MEL-28 melanoma
MDA-MB-231 breast = tested on: MDA-MB-231 breast
TK-10 renal = tested on: TK-10 renal
SK-MEL-5 melanoma = tested on: SK-MEL-5 melanoma
HT29 colon = tested on: HT29 colon
DU-145 prostate = tested on: DU-145 prostate
LOX IMVI melanoma = tested on: LOX IMVI melanoma
NCI-H460 lung = tested on: NCI-H460 lung
UO-31 renal = tested on: UO-31 renal
U251 CNS = tested on: U251 CNS

| SMILES | GI50 (SK-MEL-28 melanoma) | TGI (SK-MEL-28 melanoma) | GI50 (MDA-MB-231 breast) | TGI (MDA-MB-231 breast) | GI50 (TK-10 renal) | TGI (TK-10 renal) | GI50 (SK-MEL-5 melanoma) | TGI (SK-MEL-5 melanoma) | GI50 (HT29 colon) | TGI (HT29 colon) | GI50 (DU-145 prostate) | TGI (DU-145 prostate) | TGI (LOX IMVI melanoma) | TGI (NCI-H460 lung) | TGI (UO-31 renal) | TGI (U251 CNS) | GI50 (NCI-H460 lung) |
| --- | --- | --- | --- | --- | --- | --- | --- | --- | --- | --- | --- | --- | --- | --- | --- | --- | --- |
| COc1ccccc1CNCCCCCCCCCCCCN1C(=O)c2ccc3c4c(ccc(c24)C1=O)C(=O)N(CCCCCCCCCCCCNCc1ccccc1OC)C3=O | > 50 µM | > 50 µM | > 50 µM | > 50 µM | 0.795 µM | 1.47 µM | 48.9 µM | > 50 µM | 2.01 µM | > 50 µM | 2.91 µM | > 50 µM |  |  |  |  |  |
| C=C(C)[C@@H]1CC[C@]2(C(=O)O)CC[C@]3(C)[C@H](CCC4[C@@]5(C)CC[C@H](C(=O)/C=C/c6ccc(O)c(O)c6)C(C)(C)[C@@H]5CC[C@]43C)[C@@H]12 (some centres not stated) |  |  |  | 35.7 µM |  | 39.9 µM |  | 18.8 µM |  |  |  | 28.1 µM | > 100 µM | 16.2 µM | 12.9 µM |  |  |
| CC1(C2CCC3(C)OC3C2)CO1 (configuration not stated) |  | > 100 µM |  |  |  | > 100 µM |  | > 100 µM |  | > 100 µM |  |  | > 100 µM | > 100 µM | > 100 µM | > 100 µM |  |
| O=C1C=CC(=O)c2c(O)c(N3CCN(CCOCCO)CC3)c(Cl)c(O)c21 |  | 2.89 µM [middle of 4 runs] |  |  |  | 1.56 µM [middle of 4 runs] | 688 nM [middle of 4 runs] | 1.81 µM [middle of 4 runs] | 0.42 µM and 0.592 µM and 0.288 µM | 1.66 µM and 1.61 µM and 1.07 µM |  | 3.31 µM [middle of 4 runs] |  |  |  |  | 1.57 µM |
| Cc1[nH]c(=O)[nH]c(=S)c1C(=O)Nc1cccc2cc3ccccc3cc12 |  | > 100 µM |  |  |  | > 100 µM |  | > 100 µM |  | > 100 µM |  | > 100 µM | > 100 µM | > 100 µM | > 100 µM | > 100 µM |  |
| Cc1cc2cc3c(cc2c(-c2ccc(N)cc2)n1)OCO3 |  |  |  | > 100 µM |  | > 100 µM |  | 71.9 µM |  | 62.2 µM |  | > 100 µM |  | > 100 µM | > 100 µM | > 100 µM |  |
| CC1CC/C(=C\c2ccc(Cl)cc2)c2nc(N)c(C#N)c(-c3ccc(Cl)cc3)c21 (configuration not stated) |  | > 100 µM |  | > 100 µM |  | > 100 µM |  | > 100 µM |  | > 100 µM |  |  | > 100 µM |  | > 100 µM | > 100 µM |  |
| COc1c(C)c(C/C=C(\C)CC/C=C(\C)CCC=C(C)C)c(OC)c(OC)c1OC |  |  |  | > 100 µM |  | > 100 µM |  | > 100 µM |  | > 100 µM |  | > 100 µM | > 100 µM | > 100 µM | > 100 µM | > 100 µM |  |
| C#CCC1(C(=O)OCC)C(=O)c2ccccc2N(C)C1=O (configuration not stated) |  | > 100 µM |  |  |  | > 100 µM |  | > 100 µM |  | > 100 µM |  |  | > 100 µM | > 100 µM | > 100 µM | > 100 µM |  |
| CO[C@H]1C[C@H](O[C@H]2CC[C@]3(C=O)[C@H]4CC[C@]5(C)[C@@H](C6=CC(=O)OC6)CC[C@]5(O)[C@@H]4CC[C@]3(O)C2)O[C@H](C)[C@H]1O |  | 5.37 µM |  | 5.34 µM |  | 0.758 µM |  | 0.385 µM |  |  |  | 0.462 µM | 8.31 µM | 0.176 µM | 2.53 µM | 2.63 µM |  |
| CC(=O)Nc1cc(Nc2cc(=O)[nH]c(=O)[nH]2)ccc1C |  | > 100 µM |  | > 100 µM |  | > 100 µM |  | > 100 µM |  |  |  | > 100 µM | > 100 µM | > 100 µM | > 100 µM | > 100 µM |  |
| CSc1nc(NC(C)C)c2c(n1)Sc1nc3ccccc3n1C2O (configuration not stated) |  | > 100 µM |  | > 100 µM |  | > 100 µM |  |  |  | > 100 µM |  |  | > 100 µM |  | 27.8 µM | > 100 µM |  |
| O=C1c2ccccc2-c2[nH]c3cn[nH]c(=O)c3c21 |  |  |  | > 100 µM |  | > 100 µM |  | > 100 µM |  | > 100 µM |  | > 100 µM | > 100 µM | > 100 µM | > 100 µM | > 100 µM |  |
| Cn1c2ccccc2n2c3ncccc3c(=S)c(C#N)c12 |  | > 100 µM |  | > 100 µM |  |  |  | > 100 µM |  | > 100 µM |  | > 100 µM | > 100 µM | > 100 µM | > 100 µM | > 100 µM |  |
| CCN(CC)c1nc(N(C)C)c2ccccc2n1 |  | > 100 µM |  | > 100 µM |  | > 100 µM |  | 35 µM |  | > 100 µM |  |  | > 100 µM | > 100 µM | 85.1 µM | > 100 µM |  |
| COC(=O)C1=C(O)C(C(=O)OC)[C@]2(O)[C@H](C(=O)OC)[C@H]1C[C@@H](c1ccc([N+](=O)[O-])cc1)[C@H]2C(=O)OC (some centres not stated) |  | 50.9 µM |  | 83.9 µM |  | > 100 µM |  | 30 µM |  | 55.6 µM |  | > 100 µM | 32 µM | > 100 µM |  | 28.6 µM |  |
| O=c1cc(NCc2ccncc2)[nH]c(=O)[nH]1 |  | > 100 µM |  | > 100 µM |  | > 100 µM |  | > 100 µM |  | > 100 µM |  |  | > 100 µM | > 100 µM | > 100 µM | > 100 µM |  |
